Drawing on patent publication US8063048B2, “Acetylenyl-pyrazolo-pyrimidine derivatives” (Hoffmann-La Roche Inc., priority 2005, dated 2011), this text covers melting point for 29 compounds.

Where only a bound is given, the exact number is not on record here.

Compound `NS(=O)(=O)c1ccc(C#Cc2cnc3c(C(F)(F)F)cc(-c4ccc(C(F)(F)F)cc4)cn23)cc1` [Example 181, 4-[8-Trifluoromethyl-6-(4-trifluoromethyl-phenyl)-imidazo[1,2-a]pyridin-3-ylethynyl]-benzenesulfonamide] had a melting point of 278 to 280 °C.
Take `COCCNS(=O)(=O)c1ccc(C#Cc2cnn3c(C(F)(F)F)cc(-c4ccc(C(F)(F)F)cc4)nc23)cc1` [Example 124, N-(2-Methoxy-ethyl)-4-[7-trifluoromethyl-5-(4-trifluoromethyl-phenyl)-pyrazolo[1,5-a]pyrimidin-3-ylethynyl]-benzenesulfonamide]: the melting point lay in the range of 185 to 187 °C.
`Nc1ncc(C#Cc2cnc3c(F)cc(-c4ccc(Cl)cc4)cn23)cn1` [Example 242, 5-[6-(4-Chloro-phenyl)-8-fluoro-imidazo[1,2-a]pyridin-3-ylethynyl]-pyrimidin-2-ylamine] showed a melting point of 279 to 280 °C.
With `Cc1cc(-c2ccc(C(F)(F)F)cc2)cn2c(C#Cc3cncc(S(N)(=O)=O)c3)cnc12` [Example 229, 5-[8-Methyl-6-(4-trifluoromethyl-phenyl)-imidazo[1,2-a]pyridin-3-ylethynyl]-pyridine-3-sulfonic acid amide], the melting point was 294 °C.
`CC(C)(CO)NS(=O)(=O)c1cncc(C#Cc2cnn3c(C4CC4)cc(-c4ccc(C(F)(F)F)cc4)nc23)c1` [Example 78, 5-[7-Cyclopropyl-5-(4-trifluoromethyl-phenyl)-pyrazolo[1,5-a]pyrimidin-3-ylethynyl]-pyridine-3-sulfonic acid (2-hydroxy-1,1-dimethyl-ethyl)-amide] displayed a melting point of 190 to 191 °C.
To `Nc1ccc(C#Cc2cnn3c(C4CC4)cc(-c4ccc(Cl)cc4)nc23)cn1` [Example 294, 5-[5-(4-Chloro-phenyl)-7-cyclopropyl-pyrazolo[1,5-a]pyrimidin-3-ylethynyl]-pyridin-2-ylamine] belongs 233 to 235 °C; to `CCOc1cc(-c2cc(C(F)(F)F)n3ncc(C#Cc4ccc(N)nc4)c3n2)ccc1C(F)(F)F` [Example 189, 5-[5-(3-Ethoxy-4-trifluoromethyl-phenyl)-7-trifluoromethyl-pyrazolo[1,5-a]pyrimidin-3-ylethynyl]-pyridin-2-ylamine], 218 °C; to `O=S(=O)(O)c1cncc(C#Cc2cnn3c(C(F)(F)F)cc(-c4ccc(C(F)(F)F)cc4)nc23)c1` [Example 37, 5-[7-Trifluoromethyl-5-(4-trifluoromethyl-phenyl)-pyrazolo[1,5-a]pyrimidin-3-ylethynyl]-pyridine-3-sulfonic acid], > 288 °C.
To `O=S(=O)(c1ccc(C#Cc2cnn3c(C(F)(F)F)cc(-c4ccc(C(F)(F)F)cc4)nc23)s1)N(CCO)CCO` [Example 162, 5-[7-Trifluoromethyl-5-(4-trifluoromethyl-phenyl)-pyrazolo[1,5-a]pyrimidin-3-ylethynyl]-thiophene-2-sulfonic acid bis-(2-hydroxy-ethyl)-amide] belongs 137 °C.
To `Cc1nc(N)ccc1C#Cc1cnn2c(C(F)F)cc(-c3ccc(C(F)(F)F)cc3)nc12` [Example 143, 5-[7-Difluoromethyl-5-(4-trifluoromethyl-phenyl)-pyrazolo[1,5-a]pyrimidin-3-ylethynyl]-6-methyl-pyridin-2-ylamine] belongs 243 to 246 °C; to `CC(C)(CO)NS(=O)(=O)c1cnc(C#Cc2cnn3c(C(F)(F)F)cc(-c4ccc(Cl)c(Cl)c4)nc23)s1` [Example 90, 2-[5-(3,4-Dichloro-phenyl)-7-trifluoromethyl-pyrazolo[1,5-a]pyrimidin-3-ylethynyl]-thiazole-5-sulfonic acid (2-hydroxy-1,1-dimethyl-ethyl)-amide], 220 to 223 °C; to `CNS(=O)(=O)c1cccc(C#Cc2cnn3c(C(F)(F)F)cc(-c4ccc(C(F)(F)F)cc4)nc23)c1` [Example 130, N-Methyl-3-[7-trifluoromethyl-5-(4-trifluoromethyl-phenyl)-pyrazolo[1,5-a]pyrimidin-3-ylethynyl]-benzenesulfonamide], 213 to 214 °C.
With `Cc1cc(-c2ccc(C(F)(F)F)cc2)cn2c(C#Cc3cncc(S(=O)(=O)NC(C)(C)CO)c3)cnc12` [Example 228, 5-[8-Methyl-6-(4-trifluoromethyl-phenyl)-imidazo[1,2-a]pyridin-3-ylethynyl]-pyridine-3-sulfonic acid (2-hydroxy-1,1-dimethyl-ethyl)-amide], the melting point stood at 189 °C.
To `CS(=O)(=O)c1cncc(C#Cc2cnn3c(C(F)(F)F)cc(-c4ccc(C(F)(F)F)cc4)nc23)c1` [Example 38, 3-(5-Methanesulfonyl-pyridin-3-ylethynyl)-7-trifluoromethyl-5-(4-trifluoromethyl-phenyl)-pyrazolo[1,5-a]pyrimidine] belongs 241 to 242 °C; to `CC(C)(CO)NS(=O)(=O)c1cncc(C#Cc2cnn3c(C(F)F)cc(-c4ccc(C(F)(F)F)cc4)nc23)c1` [Example 27, 5-[7-Difluoromethyl-5-(4-trifluoromethyl-phenyl)-pyrazolo[1,5-a]pyrimidin-3-ylethynyl]-pyridine-3-sulfonic acid (2-hydroxy-1,1-dimethyl-ethyl)-amide], 200 to 201 °C; to `NS(=O)(=O)c1cccc(C#Cc2cnn3c(C(F)F)cc(-c4ccc(C(F)(F)F)cc4)nc23)c1` [Example 42, 3-[7-Difluoromethyl-5-(4-trifluoromethyl-phenyl)-pyrazolo[1,5-a]pyrimidin-3-ylethynyl]-benzenesulfonamide], 246 to 247 °C.
Consider `NS(=O)(=O)c1cc(C#Cc2cnn3c(C4CC4)cc(-c4ccc(Cl)cc4)nc23)c(F)cc1F` [Example 70, 5-[5-(4-Chloro-phenyl)-7-cyclopropyl-pyrazolo[1,5-a]pyrimidin-3-ylethynyl]-2,4-difluoro-benzenesulfonamide], for which the melting point fell in the range of 272 to 275 °C.
Then `NS(=O)(=O)c1cc(C#Cc2cnn3c(C(F)(F)F)cc(-c4cccc(C(F)(F)F)c4)nc23)c(F)cc1F` [Example 116, 2,4-Difluoro-5-[7-trifluoromethyl-5-(3-trifluoromethyl-phenyl)-pyrazolo[1,5-a]pyrimidin-3-ylethynyl]-benzenesulfonamide], with 264 °C.
Regarding `Nc1cnc(C#Cc2cnn3c(C(F)F)cc(-c4ccc(C(F)(F)F)cc4)nc23)cn1` [Example 287, 5-[7-Difluoromethyl-5-(4-trifluoromethyl-phenyl)-pyrazolo[1,5-a]pyrimidin-3-ylethynyl]-pyrazin-2-ylamine], the melting point was 233 °C.
`Cc1cc(-c2ccc(Cl)cc2)cn2c(C#Cc3ccc(S(N)(=O)=O)s3)cnc12` [Example 211, 5-[6-(4-Chloro-phenyl)-8-methyl-imidazo[1,2-a]pyridin-3-ylethynyl]-thiophene-2-sulfonic acid amide] yielded a melting point of 265 to 266 °C.
To `NS(=O)(=O)c1ccc(C#Cc2cnn3c(C(F)(F)F)cc(-c4ccc(C(F)(F)F)cc4)nc23)c(F)c1` [Example 45, 3-Fluoro-4-[7-trifluoromethyl-5-(4-trifluoromethyl-phenyl)-pyrazolo[1,5-a]pyrimidin-3-ylethynyl]-benzenesulfonamide] belongs 230 to 232 °C; to `NCCNS(=O)(=O)c1ccc(C#Cc2cnn3c(C(F)(F)F)cc(-c4cccc(C(F)(F)F)c4)nc23)s1` [Example 262, 5-[7-Trifluoromethyl-5-(3-trifluoromethyl-phenyl)-pyrazolo[1,5-a]pyrimidin-3-ylethynyl]-thiophene-2-sulfonic acid (2-amino-ethyl)-amide], 196 °C; to `Cc1cc(-c2cc(C(F)(F)F)n3ncc(C#Cc4ncc(S(=O)(=O)NC(C)(C)CO)s4)c3n2)ccc1Cl` [Example 106, 2-[5-(4-Chloro-3-methyl-phenyl)-7-trifluoromethyl-pyrazolo[1,5-a]pyrimidin-3-ylethynyl]-thiazole-5-sulfonic acid (2-hydroxy-1,1-dimethyl-ethyl)-amide], 217 °C.
The compound `NS(=O)(=O)c1cccc(C#Cc2cnn3c(C(F)(F)F)cc(-c4ccc(Cl)cc4)nc23)c1` [Example 98, 3-[5-(4-Chloro-phenyl)-7-trifluoromethyl-pyrazolo[1,5-a]pyrimidin-3-ylethynyl]-benzenesulfonamide] returned a melting point of 218 to 220 °C.
On to `O=S(=O)(NCCO)c1ccc(C#Cc2cnn3c(C(F)F)cc(-c4ccc(C(F)(F)F)cc4)nc23)cc1` [Example 140, 4-[7-Difluoromethyl-5-(4-trifluoromethyl-phenyl)-pyrazolo[1,5-a]pyrimidin-3-ylethynyl]-N-(2-hydroxy-ethyl)-benzenesulfonamide], for which the melting point fell in the range of 191 to 194 °C.
In turn, `CC(CO)(CO)NS(=O)(=O)c1cncc(C#Cc2cnn3c(C(F)(F)F)cc(-c4ccc(C(F)(F)F)cc4)nc23)c1` [Example 14, 5-[7-Trifluoromethyl-5-(4-trifluoromethyl-phenyl)-pyrazolo[1,5-a]pyrimidin-3-ylethynyl]-pyridine-3-sulfonic acid (2-hydroxy-1-hydroxymethyl-1-methyl-ethyl)-amide] yielded a melting point of 228 to 231 °C.
Then `NS(=O)(=O)c1cncc(C#Cc2cnn3c(C(F)F)cc(-c4ccc(C(F)(F)F)cc4)nc23)c1` [Example 30, 5-[7-Difluoromethyl-5-(4-trifluoromethyl-phenyl)-pyrazolo[1,5-a]pyrimidin-3-ylethynyl]-pyridine-3-sulfonic acid amide], with 238 °C; and `CC(=O)Nc1ccc(C#Cc2cnn3c(C(F)(F)F)cc(-c4ccc(C(F)(F)F)cc4)nc23)cn1` [Example 225, N-{5-[7-Trifluoromethyl-5-(4-trifluoromethyl-phenyl)-pyrazolo[1,5-a]pyrimidin-3-ylethynyl]-pyridin-2-yl}-acetamide], with 266 °C; and `Cc1cc(-c2cc(C(F)F)n3ncc(C#Cc4ccc(S(N)(=O)=O)cc4)c3n2)ccc1Cl` [Example 173, 4-[5-(4-Chloro-3-methyl-phenyl)-7-difluoromethyl-pyrazolo[1,5-a]pyrimidin-3-ylethynyl]-benzenesulfonamide], with 237 °C.
